Experiments:
[1] = test system: JNK and Erk1/2; experiment: MAPK activation by phosphorylation in human conjunctival cells (immunoblot); type: cell-based; details: 3.5 h, FIG. 6B
Procedure: FIGS. 6A and 6B illustrate that PS suppresses the activation of NF-κB and MAPKs. In FIG. 6A, NF-κB activation was determined by EMSA in cultured human conjunctival cells stimulated with TNFα (top) and in the ILG of rabbits with Con A-induced DED and treated for one week with either vehicle or PS (bottom). In FIG. 6B, immunoblots detecting the activation of MAPKs by phosphorylation in cultured human conjunctival cells treated with PS at the indicated concentrations for 3.5 h. Loading control: β-actin.
Our conjunctiva cells express only the JNK and Erk1/2 pathways.

[2] = test system: concanavalin A-induced dry eye in rabbits; experiment: Concanavalin A (Con A)-induced dry eye disease (DED) model in rabbits: TBUT, Schirmer test, tear osmolarity, tear lactoferrin; type: in vivo, rabbit
Procedure: To assess the efficacy of PS on DED an improved concanavalin A model was used. In the concanavalin A model, dry eye is induced by injecting the lacrimal glands of a mammal with concanavalin A, a selective T cell mitogen that induces a lymphocytic infiltrate in these glands. The concanavalin A model is generally described in (Barabino S. Animal models of dry eye. Arch Soc Esp Oftalmol. 2005; 80(12):693-4). Concanavalin A was injected to the lacrimal glands under ultrasound guidance, thus eliminating injections to the vicinity of the gland (as opposed to the gland itself). The head and the tail of the major lacrimal gland of the rabbit were injected separately. The dose of concanavalin A was optimized for DED signs.
In the testing described below, four markers of DED are monitored: the tear break up time (TBUT), the Schirmer test, tear osmolarity, and tear lactoferrin levels. All assays were performed at the same clock time (±1 hr) to avoid assay variability on account of circadian variations.
In an efficacy experiment using the concanavalin A model, one group of rabbits was treated with compound 5, also known as phosphosulindac and abbreviated as PS, 1.5% eye drops and one group with vehicle. […] It is thus clear that PS applied topically suppresses DED.
Con A was injected under ultrasound guidance into all the lacrimal glands and the success of the injection was verified by a post-injection ultrasound image (see FIG. 1 and FIG. 2). […] This variation explains why the blind injections recommended in the original method are often unsuccessful. This was confirmed by mixing the Con A solution with methylene blue and tracking its course after injection. In about ⅓ of the cases, Con A ended up outside the gland.
Four parameters of efficacy were evaluated instead of the usual one or two. They include (a) the tear break up time (TBUT), determined using 0.2% fluorescein over the eye and recording the time taken to develop black dots, lines or obvious disruption of the fluorescein film; (b) tear osmolarity, measured using TearLab Osmolarity Test and following the manufacturer's instructions (TearLab Corp., San Diego, Calif.); (3) Schirmer tear test (STT), determined using Schirmer strips (EagleVision, Denville, N.J.) inserted between the cornea and the palpebral conjunctiva at the mid-point of the lower lid and measuring the length of moistened strip at 5 min; and (4) tear lactoferrin levels measured by ELISA kit (MyBiosource, San Diego, Calif.) following the instructions of the manufacturer. All four have been used in clinical practice and correlate with the clinical activity of the disease. The STT is the least reliable and, as result, it is clinically used less than half as frequently as TBUT.
The injections of Con A to the lacrimal glands were repeated weekly as needed. When longer than a 1-week periods of study are needed, repeat injections prolong dry eye for at least 3 weeks, making the originally acute model chronic.
PS Suppresses Con A—Induced Dry Eye in Rabbits. The effect of PS on dry eye was determined in New Zealand White (NZW) rabbits, 2-3 kg (Charles River Labs, Waltham, Mass.). These rabbits were housed singly in rooms with strict temperature (70±5° F.) and humidity (45±5%) control and acclimated for at least 2 weeks prior to induction of dry eye by injection of Con A as above. NZW rabbits with Con A-induced dry eye (three sets of injections) were treated with PS formulated as nanoparticles and administered topically as eye drops 3×/day for 21 days, starting on the day of Con A injection. […] Similar results were obtained on days 5 and 14 (data not shown).
Using this model, we compared the effect of PS to that of cyclosporine and lifitegrast. Rabbits were treated for 6 days with PS as above or cyclosporine 0.05% or lifitegrast 5% eye drops 3×/day. In addition to determining TUBT, osmolarity and STT, we measured the levels of IL-8 and IL-1β in the ILGs of the rabbits harvested at euthanasia. […]

[3] = Baseline, PS 1.5% eye drops, Mean ± SEM
[4] = Con A DED rabbits, 6 days, eye drops 3×/day, PS nanoparticles, cyclosporine 0.05%, lifitegrast 5%, mean ± SEM
[5] = Day 13, PS 1.5% eye drops, Mean ± SEM
[6] = after 1 week of treatment, FIG. 5

Compound: CCOP(=O)(OCC)OCCCCOC(=O)CC1=C(C)/C(=C/c2ccc([S+](C)[O-])cc2)c2ccc(F)cc21 (centres unmarked) [PS, phosphosulindac]
- activation by phosphorylation of JNK and Erk1/2 [1]: profoundly suppressed
- Schirmer test [2, 3]: 14.6 ± 0.9 mm
- TBUT [2, 3]: 52.3 ± 4.6 s
- Tear lactoferrin [2, 3]: 3.09 ± 0.4 ng/mg protein
- Osmolarity [2, 4]: 294 ± 4.6 mOsm/L
- STT [2, 4]: 12.3 ± 0.6 mm
- TBUT [2, 4]: 43.6 ± 4.0 s
- Schirmer test ([2]; Day 11, PS 1.5% eye drops, Mean ± SEM): 9.5 ± 1.0 mm
- TBUT [2, 5]: 56.0 ± 4.0 s
- Tear lactoferrin [2, 5]: 3.19 ± 0.2 ng/mg protein
- TBUT, tear osmolarity and tear lactoferrin levels ([2]; PS nanoparticles eye drops 3×/day for 21 days, FIG. 4): restored to normal
- STT value ([2]; PS nanoparticles eye drops 3×/day for 21 days, difference from vehicle significant only for trend, FIG. 4): improved
- STT [2, 6]: no significant effect
- TBUT and osmolarity [2, 6]: normalized

Source: US11510931B2, “Compositions and methods for treating ophthalmic conditions” (MEDICON PHARMACEUTICALS, INC., priority 2016, dated 2022)
